From a melting point compilation (Tetko et al.; mined from patent text by program, amines drawn as free bases though some values may be those of a salt)

Row | melting point [°C] | SMILES
1 | 203 to 204 | O=C(O)Cc1nn(-c2nc3c(Cc4ccc5scnc5c4)cccc3s2)c(=O)c2ccccc12
2 | 169 to 171 | CCCCNC(=O)NS(=O)(=O)c1ccc(CCNC(=O)N2Cc3ccc(C)cc3C2=O)cc1
3 | 100 to 102 | COc1ccccc1-c1ccc(C[C@H](NC(=O)c2c(Cl)cccc2Cl)C(=O)O)cc1OC
4 | 219 to 221 | CCCn1nc2c(N)nc3ccccc3c2c1CCNC(=O)c1cccnc1
5 | 159 to 163 | COc1cccc(CNC(=O)c2cc3c(=O)n(CC#N)c(=O)n(C)c3s2)c1
6 | 115 to 116 | Cc1cccc(Cl)c1CCCOc1oc(-n2ccnc2C)nc1-c1ccc(Cl)cc1
7 | 113 to 114 | c1ccc(-c2nc(COc3ccc(CCCCn4ccnc4)cc3)co2)cc1
8 | 84 to 85 | O=S(=O)(Nc1cccc(CCOCc2nc(-c3ccc(F)cc3)sc2Br)c1)C(F)(F)F
9 | 86 to 87 | CCOC(=O)c1ccc(/C=C(\C)c2ccc3c(c2)C(C)(C)CCO3)cc1
10 | 98 to 99 | N#Cc1ccc(CC(=O)Nc2cccc(C(=O)NCCC(=O)OCc3ccccc3)c2)cc1
11 | 208 to 210 | COc1ccc2c(c1)c(CC(=O)N(O)C1CCCCC1)c(C)n2C(=O)c1ccc(Cl)cc1
12 | 91 to 93 | COc1ccc(C(=C/C=C/C(=O)NCCCCc2cncc3ccccc23)c2ccc(OC)cc2)cc1
13 | 198 to 200 | CCOCCOc1ccccc1-c1cc(=O)c2cc(C(=O)O)ccc2o1

More lines, now with the values behind:

Row | SMILES | melting point [°C]
14 | Cc1ccccc1-c1cc2cnc(N)nc2nc1NC(=O)NC(C)(C)C | 195 to 197
15 | CSc1c(C=O)c(=O)n(C)c(=O)n1C | 104
16 | CC1(C)CN(C2CC3(C)C(CCC4C3CCC3(C)C(C(=O)CSC#N)CCC43)CC2O)CCO1 (centres undefined) | 166
17 | CCOC(=O)C1(NC=O)Cc2ccccc2NC1=O (centres undefined) | 187 to 190
18 | COCC1(N2C(=O)NC(=O)C2=O)C=CC=C(OC2CC(F)CC2Cl)C1 (centres undefined) | 90 to 91
19 | N#Cc1ccc(C2C(=O)N(Cc3ccccc3)Cc3cncn32)cc1 (centres undefined) | 163 to 165
20 | CS(=O)c1nc(-c2ccccc2)c(-c2ccccc2)o1 (centres undefined) | 75 to 78
21 | CCOc1ccc(C=CC(=O)N2CCc3c([nH]c4ccccc34)C2c2ccc3c(c2)OCO3)cc1 (centres undefined) | 199 to 200
22 | CN1C(=O)CCC2(C)c3ccc(-c4cccs4)cc3CCC12 (centres undefined) | 193 to 195
23 | Cn1c2ccccc2c2cc(C(=O)C(C)(C)N3CCOCC3)ccc21 | 164 to 166
24 | COc1ccc(CNc2c(C)c(C)c3oc(C)c(-c4ccc(F)cc4)c3c2C)cc1 | 100 to 102
25 | OC[C@H]1CCc2cccc(O)c2O1 | 131 to 132
26 | c1cc2c(c(NC3=NCCO3)c1)CCCC2 | 101 to 103
27 | CCOC(=O)c1sc(-c2ccc(C#N)cc2)nc1CBr | 156
28 | O=C1OCCC12Sc1cc(Cl)ccc1C2=O (centres undefined) | 157 to 158
29 | O=C(O)c1cc(Oc2ccc([N+](=O)[O-])cc2)cc(Oc2ccc([N+](=O)[O-])cc2)c1 | 230 to 232
30 | CCN1CCN(CC)c2cc([N+](=O)[O-])ccc2C1=O | 79 to 80
31 | Cc1cc(C2=NOC(c3cc(Cl)cc(Cl)c3)(C(F)(F)F)C2)ccc1C(=O)Nc1ncc(Br)cn1 (centres undefined) | 178 to 181
32 | CCN(CC)c1nc(N)c(SC)c(Cl)n1 | 68
33 | CSCc1cc2ccccc2n(-c2ccccc2)c1=O | 138 to 140
34 | Nc1ccc2c(c1)Sc1ccccc1N2 | 150 to 156
35 | CCON=C1CN(c2nc3c(cc2F)c(=O)c(C(=O)O)cn3C2CC2)CC12CN(C(=O)OC(C)(C)C)C2 | 261 to 262
36 | CN1CCc2c(c3ccccc3n2CCc2n[nH]c(=S)n2C)C1 | 216 to 219
37 | CN(C)CC(C)(C)CNc1nccc(-c2c(-c3ccc(F)cc3Cl)nc3occn23)n1 | 124 to 126
38 | CCOC(=O)c1cn(-c2cnsn2)c2nc(Cl)c(F)cc2c1=O | 175 to 178
39 | Cc1csc(-c2ncccc2C(=O)c2ccccn2)c1 | 122 to 123
